Test results taken from US5202354A, “Composition and method for reducing acetaldehyde toxicity” (priority 1986, dated 1993).
“Also recorded” adds a separate entry of the source. Structures can show the parent of a compound that is named as a salt.

Experiment: Antagonistic effects on the anesthetic and lethal effects of acetaldehyde in rats
Type: in vivo
Conditions: acetaldehyde 1370 mg/kg oral, hydrochloride
Method: Rats (body weights 250-280 g) fasted for 18 hours were previously dosed orally with each of test compositions Formula A to Formula G as shown in below. Control group received a corresponding volume of saline by the same route. After a predetermined time (45-60 min ), acetaldehyde (1370 mg/kg) was orally administered to the rats and the effect of Formula A to Formula G on the anesthetic and lethal effects of acetaldehyde was observed.
When 1370 mg/kg of acetaldehyde was administered without prior treatment with the test compositions, the rats (control group) fell into anesthesia within several minutes, and then developed dyspnea and the like and 90% of them died within 1 to 6 hours.
The same experiment as Experimental Example I was carried out with each of test compositions Formula H and I and the results obtained are shown in Table 4.

## CC(=C(CCO)SSCC1CCCO1)N(C=O)Cc1cnc(C)nc1N (stereo in doubt) [fursultiamine hydrochloride]
  antagonizing effect against anesthetic and lethal effects of acetaldehyde (in words): fully effective at the level of addition of 20 mg/kg; also recorded: more effective than thiamine hydrochloride
